In paper PMC6099102, “Effect of the Nature of Donor Atoms on the Thermodynamic, Kinetic and Relaxation Properties of Mn(II) Complexes Formed With Some Trisubstituted 12-Membered Macrocyclic Ligands” (Frontiers in Chemistry, 2018):

Assay: Longitudinal water proton relaxivity (r1p) of the Mn(II) complexes
Format: physicochemical
Conditions: 0.5 T field strength, 25 °C and pH = 7.4
Procedure: The relaxometric data were collected using a Bruker Minispec MQ20 NMR relaxometer. […] A datapoint plotted on figures represents an average of 5–6 T1 measurements (Figures S3–S9 in Supplementary Material). The data were fitted by using the molar r1p relaxivity value of the MnCl2 ([…] at 0.49 T and 25 °C). The equilibrium constants were calculated using the PSEQUAD program (Zékány and Nagypál, [1985]).
The longitudinal water proton relaxation rates (r1 = 1/T1-1/Tw) were measured at 20 MHz with a Bruker Minispec MQ-20 relaxometer (Bruker Biospin, Germany). Samples were thermostated by using a circulating water bath at 25.0 ± 0.2 °C. The longitudinal relaxation times (T1) were measured by the inversion-recovery method (180° − τ − 90°), averaging 5–6 data points collected for each concentration point obtained from 14 different τ values (τ values ranging between 0 to at least 6 times the expected T1). The relaxivity of the complexes was determined by titrating a nearly 1.0 mM ligand solution with a Mn(II) stock solution at pH = 7.22–7.43 (50 mM HEPES buffer, I = 0.15 M NaCl, 25 °C). Under these conditions, the only Mn(II) ion containing species present in solution is the [Mn(L)], which was supported by the r1 vs. pH profiles. The relaxivity of the complex was determined as the slope of the strait line obtained by plotting 1/T1p values as a function of Mn(II) concentration for samples with [Ligand] > [Mn(II)]. The relaxivity of [Mn(DOTP)]^6− and [Mn(DO3P)]^4− was determined in the pH range of 10.0–11.0 and 8.5–9.3, respectively where mainly the [Mn(DO3P)]^4− and [Mn(DOTP)]^6− complex exists in solution (Figures S4 and S9 in Supplementary Material).
The relaxivity (r1p, mM^−1s^−1) is defined as the longitudinal water proton relaxation rate in a solution containing 1.0 mM concentration of the paramagnetic species. It characterizes the efficiency of a paramagnetic metal chelate to enhance the solvent proton relaxation rate at a given magnetic field (usually 20 MHz) and temperature. The inner-sphere contribution to relaxivity is directly proportional to the number of metal bound water molecules (q), and therefore, relaxivity values may provide some useful information on the hydration state of paramagnetic complexes of similar molecular weights and electronic relaxation times. […] The r1p values of the Mn(II) complexes formed with heptadentate 12-membered macrocyclic ligands were determined at 0.5 T field strength and 25 °C and reported in Table 4 along with some relaxivity data published for the complexes of hexa-, hepta- and octadentate ligands. […] Below these pH ranges the phosphonate moieties undergo protonation, which further increases the relaxivity (2.60–2.90 mM^−1s^−1 values were observed near pH = 7.4, see Supplementary Material). Similar increase in the relaxivity (to 3.20 mM^−1s^−1 at 20 MHz, 37 °C) is observed for the [Mn(DOTA)]^2− complex upon its protonation and formation of the thermodynamically stable diprotonated [Mn(H2DOTA)] complex that exists as a non-hydrated chelate both in solution and in the solid state (Wang and Westmoreland, [2009]). The relaxivity of the diprotonated species at t → 0 time point was determined from the extrapolation of the relaxivity vs. time data collected after acidification of the samples containing the complexes. The X-ray crystallographic structure of [Mn(H2DOTA)] indicates the protonation of two trans carboxylate moieties (e.g., the coordination around the metal ion is similar to that observed in [Mn(trans-DO2A)] as determined by DFT calculations). Thus, the relaxivity of the diprotonated [Mn(H2DOTA)] and [Mn(H2DOTMA)] complexes is expected to be similar to that of [Mn(trans-DO2A)] (when q = 0). The value obtained by us is considerably higher, which highlights the importance of prototropic exchange as a useful tool to improve the relaxivity of the complexes (however, it has to be underlined that the protonation of the complex generally leads to a decrease in kinetic inertness).

O=C(CN1CCN(CC(=O)N2CCCCC2)Cc2cccc(n2)CN(CC(=O)N2CCCCC2)CC1)N1CCCCC1.[Mn+2] [[Mn(PC3AM^Pip)]^2+]
r1p: 1.28 mM⁻¹ s⁻¹
